Where two headings read alike, the source gives them in different places.
Columns and labels:
recombinant ovine COX-2 [1] = target: T1, recombinant ovine COX-2 (Ovis aries, UniProt P79208); assay: COX-2 peroxidase assay, high throughput (Example 2); format: biochemical; details: 20 μg/mL
T1 construct: purchased Cayman
T1 sequence (P79208 17-603): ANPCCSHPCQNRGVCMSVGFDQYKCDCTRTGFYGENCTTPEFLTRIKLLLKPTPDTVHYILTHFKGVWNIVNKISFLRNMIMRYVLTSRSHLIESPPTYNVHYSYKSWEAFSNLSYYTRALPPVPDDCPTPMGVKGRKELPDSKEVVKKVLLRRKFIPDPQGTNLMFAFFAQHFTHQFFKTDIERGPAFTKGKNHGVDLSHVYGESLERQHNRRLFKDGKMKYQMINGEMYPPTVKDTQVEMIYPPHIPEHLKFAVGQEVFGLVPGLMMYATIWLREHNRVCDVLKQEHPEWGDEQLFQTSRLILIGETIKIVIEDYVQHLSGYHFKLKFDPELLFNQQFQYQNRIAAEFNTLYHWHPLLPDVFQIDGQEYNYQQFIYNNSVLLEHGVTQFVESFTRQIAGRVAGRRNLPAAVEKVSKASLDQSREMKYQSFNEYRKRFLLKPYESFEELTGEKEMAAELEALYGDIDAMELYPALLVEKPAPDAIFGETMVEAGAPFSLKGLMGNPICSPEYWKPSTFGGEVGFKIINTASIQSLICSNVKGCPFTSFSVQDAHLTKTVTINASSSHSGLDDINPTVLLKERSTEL
Description: Peroxidase Assay. The assay to detect inhibitors of COX-2 was modified for a high throughput platform (Raz). […] Luminescence was then read using a Wallac Victor 2 plate reader. […] Data is presented as the percent of peroxidase activity relative to the recombinant ovine COX-2 enzyme and substrate alone.

Ovine COX-1 [2] = target: T2, Ovine COX-1 (Ovis aries, UniProt P05979); assay: COX-1 peroxidase assay (Example 2 method); format: biochemical; details: read-out: Inhibition of COX-1
T2 sequence (P05979 25-600): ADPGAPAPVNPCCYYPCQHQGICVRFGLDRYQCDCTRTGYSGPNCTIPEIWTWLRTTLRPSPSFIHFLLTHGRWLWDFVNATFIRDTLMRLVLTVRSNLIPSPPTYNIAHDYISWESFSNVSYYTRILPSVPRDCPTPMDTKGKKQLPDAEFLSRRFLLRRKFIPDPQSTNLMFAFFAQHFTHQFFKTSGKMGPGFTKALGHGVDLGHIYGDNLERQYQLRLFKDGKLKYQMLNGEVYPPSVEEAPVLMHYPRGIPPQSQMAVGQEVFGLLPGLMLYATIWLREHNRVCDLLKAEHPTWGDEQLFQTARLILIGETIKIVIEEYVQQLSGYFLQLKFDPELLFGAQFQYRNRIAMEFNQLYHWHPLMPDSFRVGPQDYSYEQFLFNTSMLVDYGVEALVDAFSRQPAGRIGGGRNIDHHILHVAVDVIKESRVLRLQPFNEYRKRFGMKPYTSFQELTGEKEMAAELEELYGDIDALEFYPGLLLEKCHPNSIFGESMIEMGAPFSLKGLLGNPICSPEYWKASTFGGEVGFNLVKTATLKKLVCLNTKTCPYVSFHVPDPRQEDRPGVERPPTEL
Description: Peroxidase Assay. The assay to detect inhibitors of COX-2 was modified for a high throughput platform (Raz). […] Luminescence was then read using a Wallac Victor 2 plate reader.
Comparison of the relative inhibition of the COX-1 and COX-2 isoforms requires the generation of IC50 values for each of these enzymes. […] Examination of the HTP fractions and purified compounds from these fractions is necessary to determine the true specificity of inhibition for these extracts and compounds.

COX-1 = details: cited from earlier work
colorectal cancer = details: in vivo; cited from earlier work
[3] = Clinical study, weight and BMI; format: in vivo, human; details: 200 mg/day
Method: Additional measurements taken during the clinical trial were height and weight. All subjects in all groups (see Example 20) were measured for height and weight at 30 and 90 days of treatment. The subjects were given no recommendations on diet or exercise in order not to bias the results toward reduction of BMI and weight loss. Table 14 illustrates the changes in weight and BMI that occurred after treatment for 30 and 90 days.

[4] = test system: subjects with rheumatoid arthritis or osteoarthritis of the knee and/or hip; assay: Clinical study, WOMAC Osteo-Arthritis Index; format: in vivo, human; details: 200 mg/day; vs baseline; completers only
Description: This clinical study was a single-center, randomized, double-blind, placebo-controlled study. Sixty subjects (n=60) with rheumatoid arthritis or osteoarthritis of the knee and/or hip were randomly placed into one of the following four groups:
Subjects were sex-matched and recruited from ages 40 to 75. […] Subjects taking NSAIDs engaged in a two-week washout period before beginning the study. Physical activity was not restricted, nor were the subjects given any advice as to diet. Subjects were free to withdraw from the trial at any time for any reason. The efficacy of the treatments was evaluated at 30, 60 and 90 days of oral administration by physicians, using the Western Ontario and McMaster Universities (WOMAC) Osteo-Arthritis Index (See Lingard et al. (2001) J. Bone & Joint Surg. 83:1856-1864; Soderman and Malchau (2000) Acta Orthop. Scand. 71(1):39-46). This protocol was reviewed and approved by an IRB board from University of Montreal.
The WOMAC was administered to subjects preferably in the doctor's office. They were asked to read and respond to a questionnaire on their own or via proxy in the waiting room of the doctor's office or were interviewed by project personnel over the telephone and the data were transcribed in the computer database. This offered a stable environment among patients and reduced the possibility of bias due to different home environments among patients. Between groups differences for all measurements were evaluated with One-Way Analysis of Variance and Tukey's Least Significant Difference for multiple comparisons. All questions were assigned a weight from 0 to 4 depending on the severity of pain, stiffness or impaired function. These values were then converted to percentages normalized to 100 and reported as WOMAC scores. Higher values are indicative of greater impairment. […] The lower the score, the less pain and stiffness and better function a patient has.

mouse = details: oral, 100 mg/kg; cited from earlier work
[5] = test system: LTB4 synthesis (5-LO pathway) in HT-29 cells; assay: LTB4 ELISA in HT-29 cells; format: cell-based; details: 3 μg/mL, 48 hrs; Univestin ratio 80:20
Method: A competitive ELISA for LTB4 (LTB4; Neogen, Inc., Cat #4061 10) was used to assess the effect of Univestin™ on newly synthesized levels of LTB4 present in each cell line as a measure of Univestin™'s inhibitory effect on the 5-LO pathway. The assay was performed in duplicate by adding 160,000 to 180,000 cells per well in 6-well plates. […] Each treated cell line was then harvested by centrifugation and disrupted by gentle dounce homogenization lysis in physiological buffers.

recombinant ovine COX-2 [6] = target: T1, recombinant ovine COX-2; assay: COX-2 peroxidase activity IC50 assay with TMPD (Example 6); format: biochemical
Method: (§1) A cleavable, peroxide chromophore was included in the assay to visualize the peroxidase activity of each enzyme in the presence of arachidonic acid as a cofactor. Typically, the assays were performed in a 96-well format. Each inhibitor, taken from a 10 mg/mL stock in 100% DMSO, was tested in triplicate at room temperature using the following range of concentrations: 0, 0.1, 1, 5, 10, 20, 50, 100, and 500 μg/mL. […] The components were mixed for 10 seconds on a rotating platform, after which 20 μL of 2 mM N,N,N′N′-Tetramethyl-p-phenylenediamine dihydrochloride (TMPD) and 20 μL of 1.1 mM AA was added to initiate the reaction. The plate was shaken for 10 seconds and then incubated for 5 minutes before reading the absorbance at 570 nm. The inhibitor concentration vs. percentage inhibition was plotted and the IC50 determined by taking the half-maximal point along the isotherm and intersecting the concentration on the x-axis. The IC50 was then normalized to the number of enzyme units in the assay.

Ovine COX-1 [7] = target: T2, Ovine COX-1; assay: COX-1 peroxidase activity IC50 assay with TMPD (Example 6); format: biochemical
Method: as §1

potato 5-lipoxygenase = assay: Lipoxygenase Inhibitor Screening Assay with potato 5-LO; format: biochemical
Description: As noted above, one of the most important pathways involved in the inflammatory response is produced by non-heme, iron-containing lipoxygenases (5-LO, 12-LO, and 15-LO), which catalyze the addition of molecular oxygen onto fatty acids such as AA (AA) to produce the hydroperoxides 5-, 12- and 15-HPETE, which are then converted to leukotrienes. There were early indications that the flavan extract from A. catechu may provide some degree of 5-LO inhibition, thereby preventing the formation of 5-HPETE. […] The 15-LO from soybeans normally used in the kit was replaced with potato 5-LO, after a buffer change from phosphate to a tris-based buffer using microfiltration was performed. This assay detects the formation of hydroperoxides through an oxygen sensing chromagen.

SMILES: COc1cc2oc(-c3ccccc3)cc(=O)c2c(O)c1O [5,6-Dihydroxy-7-methoxyflavone]
- inhibition at 20 µg/mL (recombinant ovine COX-2 [1]): 59%
- inhibition at 20 µg/mL (Ovine COX-1 [2]; 20 μg/mL): 75%

SMILES: O=c1cc(-c2ccccc2)oc2c(O)c(O)ccc12 [7,8-Dihydroxyflavone]
- inhibition at 20 µg/mL (recombinant ovine COX-2 [1]): 63%
- inhibition at 20 µg/mL (Ovine COX-1 [2]; 20 μg/mL): 74%

SMILES: Oc1cc(O)c2c(c1)O[C@H](c1ccc(O)c(O)c1)[C@@H](O)C2 [(+)-Catechin]
- IC50 (COX-1; isolated from natural source): 80 µM

SMILES: CC(=O)Oc1ccccc1C(=O)O [Aspirin]
- Reduction of colorectal cancer mortality (colorectal cancer): 50%
- Reduction of incidence of colorectal cancer (colorectal cancer): 40-50%

SMILES: Cc1ccc(-c2cc(C(F)(F)F)nn2-c2ccc(S(N)(=O)=O)cc2)cc1 [Celecoxib]
- Change in mean BMI, 30 days [3]: −.68 kg/m^2
- Change in mean BMI, 90 days [3]: −1.07 kg/m^2
- Change in mean weight, 30 days [3]: -2.00 kg
- Change in mean weight, 90 days [3]: -3.17 kg
- Mean absolute change in WOMAC score Function-30 days [4]: −0.37
- Mean absolute change in WOMAC score Function-60 days [4]: −6.97
- Mean absolute change in WOMAC score Function-90 days [4]: −2.78
- Mean absolute change in WOMAC score Pain-30 days [4]: −4.23
- Mean absolute change in WOMAC score Pain-60 days [4]: −22.31
- Mean absolute change in WOMAC score Pain-90 days [4]: −16.67
- Mean absolute change in WOMAC score Stiffness-30 days [4]: −8.65
- Mean absolute change in WOMAC score Stiffness-60 days [4]: −9.62
- Mean absolute change in WOMAC score Stiffness-90 days [4]: −13.54

SMILES: Oc1ccc([C@H]2Oc3cc(O)cc(O)c3C[C@H]2O)cc1 [Epiafzelechin]
- Anti-inflammatory activity, carrageenin-induced mouse paw edema (mouse): demonstrated anti-inflammatory activity
- IC50 (COX-1; isolated from Celastrus orbiculatus): 15 µM

SMILES: CC(C)Cc1ccc(C(C)C(=O)O)cc1 (centres unmarked) [Ibuprofen]
- Reduction of newly synthesized LTB4 [5]: 20%

SMILES: COc1c(O)cc(O)c2c(=O)cc(-c3ccccc3)oc12 [Wogonin]
- inhibition at 20 µg/mL (Ovine COX-1 [2]): 16%

SMILES: O=c1cc(-c2ccccc2)oc2cc(O)c(O)c(O)c12 [baicalein]
- inhibition at 20 µg/mL (Ovine COX-1 [2]; 20 μg/mL): 107%

SMILES: O=C(O)[C@H]1O[C@@H](Oc2cc3oc(-c4ccccc4)cc(=O)c3c(O)c2O)[C@H](O)[C@@H](O)[C@@H]1O [baicalin]
- inhibition at 20 µg/mL (recombinant ovine COX-2 [1]): 97%
- inhibition at 20 µg/mL (Ovine COX-1 [2]; 20 μg/mL): 95%

SMILES: Oc1cc(O)c2c(c1)OC(c1ccc(O)c(O)c1)C(O)C2 (centres unmarked) [catechin]
- IC50 for COX-2 (recombinant ovine COX-2 [6]; normalized to enzyme units): 0.42 μg/mL/unit
- IC50 for COX-1 (Ovine COX-1 [7]; normalized to enzyme units): 0.11 μg/mL/unit of enzyme
- IC50 for 5-LO (potato 5-lipoxygenase): 1.38 μg/mL/unit of enzyme

SMILES: Oc1cc(O)c2c(c1)O[C@H](c1ccc(O)c(O)c1)[C@H](O)C2 [epicatechin]
- IC50 (recombinant ovine COX-2 [6]): 68.9 µM
- IC50 (Ovine COX-1 [7]): 24.1 µM

Source: patent US7514469B2, “Formulation of a mixture of Free-B-ring flavonoids and flavans as a therapeutic agent” (Unigen Pharmaceuticals, Inc., priority 2002, dated 2009)
